Assay results: PubChem BioAssay (NCI)
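Compound exposure: 48 hours, 5 concentrations, 96-well plates. Abbreviation: GI50, concentration required for 50% inhibition of growth. TGI denotes the concentration required for complete inhibition of growth.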

Key:
Test in all cases: growth of human tumour cells (NCI), 48 h
[1] = test system: U251 CNS
[2] = test system: MDA-MB-435
[3] = test system: SK-MEL-2 melanoma
[4] = test system: M14 melanoma
[5] = test system: MOLT-4 leukemia
[6] = test system: T-47D breast
[7] = test system: SK-MEL-5 melanoma
[8] = test system: RXF 393 renal
[9] = test system: PC-3 prostate
[10] = test system: EKVX NSCLC

Structure (SMILES) | GI50 [1] | TGI [1] | GI50 [2] | TGI [2] | GI50 [3] | TGI [3] | GI50 [4] | TGI [4] | GI50 [5] | TGI [5] | GI50 [6] | TGI [6] | GI50 [7] | TGI [7] | GI50 [8] | TGI [8] | GI50 [9] | TGI [9] | GI50 [10] | TGI [10]
CCN(CC)CCCC(C)Nc1c(-c2ccccc2)cnc2cc(Cl)ccc12 (stereo not given) | 6.84 µM | 20.5 µM | 2.24 µM | 5.31 µM | 6.56 µM | 13.8 µM | 1.86 µM | 3.44 µM | 4.38 µM | 31.9 µM | 4.44 µM | 16.2 µM | 1.74 µM | 3.64 µM | 3.36 µM | 11.1 µM | 14.9 µM | 60.4 µM | 7.58 µM | 40.7 µM
COc1cc(/C=C/[N+](=O)[O-])cc(OC)c1OC | 2.86 µM | 10.9 µM | 2.8 µM | 10.2 µM | 3.05 µM | 7.11 µM | 2.07 µM | 4.31 µM | 4.56 µM | 34.1 µM | 2 µM | 9.6 µM | 1.55 µM | 3 µM | 1.47 µM | 2.97 µM | 3.25 µM | 10.6 µM | 13.6 µM | 28.4 µM
Cc1cc(NC(=O)c2cnc(N3CCN(CCOCCOCCOCCOCCC(=O)N[C@H](C(=O)N4C[C@H](O)C[C@H]4C(=O)N[C@@H](C)c4ccc(-c5scnc5C)cc4)C(C)(C)C)CC3)cn2)c2ncccc2c1 | 2.74 µM | 7.92 µM | 2.25 µM | 5.38 µM | 3.17 µM | 11 µM | 2.19 µM | 4.94 µM | 3.12 µM | 9.67 µM | 3.03 µM | 17.9 µM | 2.36 µM | 5.72 µM | 1.73 µM | 3.71 µM | 2.85 µM | 10.4 µM | 4.9 µM | > 100 µM
CN(c1ccc(C#N)c(Cl)c1)C1CCC(NC(=O)c2ccc(N3CCN(C4CN(c5ccc6c(c5)C(=O)N(C5CCC(=O)NC5=O)C6=O)C4)CC3)cc2)CC1 (stereo not given) | 61.2 µM | > 100 µM | > 100 µM | > 100 µM | > 100 µM | > 100 µM | 21.7 µM | 64.3 µM | > 100 µM | > 100 µM | > 100 µM | > 100 µM | > 100 µM | > 100 µM | > 100 µM | > 100 µM | > 100 µM | > 100 µM | > 100 µM | > 100 µM
O=C1CCC(N2C(=O)c3cccc(NCCCC4CCN(CCNC(=O)c5cc6c(o5)C(=O)c5ccccc5C6=O)CC4)c3C2=O)C(=O)N1 (stereo not given) | 1.14 µM | 2.45 µM | 0.182 µM | 0.335 µM | 1.27 µM | 3.6 µM | 0.161 µM | 0.309 µM | 1.93 µM | 13.8 µM | 1.82 µM | 11 µM | 0.163 µM | 0.303 µM | 1.03 µM | 3.08 µM | 0.976 µM | > 76.4 µM | 1.5 µM | 3.34 µM
O=C1c2ccccc2C(=O)N1C1(C(=O)NC2(C(=O)O)CCCC2)CCCC1 |  | > 100 µM |  | > 100 µM |  | > 100 µM |  | > 100 µM |  | > 100 µM |  | > 100 µM |  | > 100 µM |  | > 100 µM |  | > 100 µM |  | > 100 µM
N#CC(C#N)=C(N)/C(C#N)=C/c1ccc2[nH]ccc2c1 |  | > 100 µM |  | > 100 µM |  | > 100 µM |  | > 100 µM |  | > 100 µM |  | > 100 µM |  | > 100 µM |  | > 100 µM |  | > 100 µM |  | > 100 µM
C=C1C(=O)O[C@H]2[C@H]1CC/C(CNC(=O)/C=C/c1ccccc1)=C\CC[C@@]1(C)O[C@@H]21 | 1.77 µM | 3.55 µM | 1.35 µM | 6.41 µM | 1.49 µM | 3.41 µM | 1.15 µM | 3.23 µM | 1.47 µM | 5.22 µM | 1.44 µM | 4.3 µM | 1.68 µM | 3.06 µM | 0.864 µM | 2.15 µM | 1.92 µM | 4.15 µM | 1.65 µM | 4.51 µM
